Test results: patent US20220193070A1, “METHODS FOR TREATING ABSENCE SEIZURES” (XENON PHARMACEUTICALS INC., priority 2020, published 2022)
Marks after values point to notes of the source that are not given here.

Assays:
[1] = Open-label clinical study: safety, tolerability and questionnaires
[2] = tested on: absence seizures; assay: Open-label clinical study: number of absence seizures during EEG; type: in vivo, human; parameters: reduction of absence seizures on EEG: concentration or dose not given beside the values
Text: The secondary objectives are to evaluate EEG changes in patients with absence epilepsy; to evaluate changes in quality of life for patients; and to evaluate global impression change and clinical impression of change. The secondary outcome measures include median percent change in the number of absence seizures on EEG, and bursts of spike/wave lasting 2 or more seconds in patients treated with flunarizine compared with the baseline period; Clinical and Patient Global Impression of Change scores during the flunarizine treatment period; median percent change in weekly absence seizure frequency from baseline compared to end of study period; and median percent change in weekly absence seizure frequency from flunarizine treatment period.

[3] = tested on: absence seizures; assay: Open-label clinical study: absence seizure frequency from patient seizure diaries; type: in vivo, human
Text: Seizure frequency is documented via seizure diaries and side effects and safety are closely monitored. This study informs the feasibility and utility of conducting a larger clinical trial.
Objectives: The primary objective is to assess the efficacy, safety and tolerability of flunarizine compared to a baseline period on absence seizures in patients with treatment refractory generalized epilepsy taking a minimum of one anti-seizure medication (ASM).
This is an open-label, single-centre study to evaluate the clinical efficacy, safety and tolerability of flunarizine administered as adjunctive treatment in participants diagnosed with treatment resistant absence epilepsy. The study includes 20 participants.
Inclusion Criteria: Participants eligible for this study meet all of the following criteria: • 1. Participant is 4 to 18 years of age • 2. Participant has treatment resistant absence seizures. Treatment resistant absence seizures are defined as failure to respond to […] appropriate anti-seizure medications (ASMs). […] Participant must currently be taking a minimum of one ASM • 4. Normal development (may have specific learning disabilities and/or ADHD/ADD) • 5. EEG confirmation of absence seizures and EEG within 2 months of screening visit • 6. Absence seizures reported at least 10 times per week • 7. Participants must have no changes in baseline ASMs for 1 month prior to screening period • 8. Participant or caregiver can maintain a seizure diary • 9. Participant is able to swallow capsules • 10. Written informed consent must be provided. Legal guardians of the participants must be able to understand and provide written consent on behalf of the participant, since study participants may be too young to provide informed consent. For participants 7-18 years of age, assent is required along with written informed consent of the caregiver. • 11. The participant is willing and able to attend all study visits • 12. Participant has the ability to speak and read in English • 13. Females of child bearing potential who are sexually active must be willing to use contraceptive methods for the duration of the study and 6 months post last dose of study drug. • 14. Males who are sexually active with females of child bearing potential must be willing to use contraception for the duration of the study and 3 months post last dose of study drug.
The initial dose of flunarizine at Visit 2 is 5 mg/day taken at night. The dose is taken orally as one 5 mg capsule. In order to optimize response to treatment, dose escalation, at the discretion of the investigator, is performed at Visit 3. If the 5 mg/day dose is tolerated by any given participant, the dose is escalated to 10 mg/day taken as two 5 mg capsules. […] The investigator uses discretion to maintain or adjust the dose level based on the study participant's tolerability and clinical response, alongside other medical considerations. If deemed necessary by the investigator, the 10 mg dose is be split into morning and evening doses to reduce minor side effects.
At the screening visit, the seizure history is assessed using detailed parental interviews and chart review. The investigator takes the participant's medical history (including date of seizure onset date of epilepsy diagnosis). The participant's vital signs (temperature, blood pressure and heart rate), height and weight are recorded.

Fc1ccc(C(c2ccc(F)cc2)N2CCN(C/C=C/c3ccccc3)CC2)cc1 [Flunarizine, 1-[bis(4-fluorophenyl)methyl]-4-cinnamyl-piperazine]
Depressive symptoms and somnolence ([1]; human, in vivo): not observed in any patient
tolerability ([1]; patients 4 to 18 years, 5 or 10 mg/day oral): well tolerated
side effect ([1]; resulting in medication discontinuation): weight gain as the only side effect in one patient
absence seizures on EEG ([2]; 2 of the three CAE subjects): resolution of absence seizures
% Reduction in Seizures (EEG) ([2]; Patient 1 (Jeavons)): 11%
Number of Absence Seizures during EEG, Visit 5 ([2]; Patient 1 (Jeavons), baseline 9): 8
% Reduction in Seizures (EEG) ([2]; Patient 3 (CAE)): 94%
Number of Absence Seizures during EEG, Visit 5 ([2]; Patient 3 (CAE), baseline 16): 1
% Reduction in Seizures (EEG) ([2]; Patient 4 (CAE)): 100%
Number of Absence Seizures during EEG, Visit 5 ([2]; Patient 4 (CAE), baseline 7): 0
% Reduction in Seizures (EEG) ([2]; Patient 5 (CAE)): 100%
Number of Absence Seizures during EEG, Visit 5 ([2]; Patient 5 (CAE), baseline 5): 0
% Reduction in Seizures (EEG) ([2]; Patient 6 (JAE), 10 mg): 50 to 100%***
Number of Absence Seizures during EEG, Visit 5 ([2]; Patient 6 (JAE), 10 mg, baseline 6): 3
reduction of absence seizures on EEG ([2]; one of the three CAE subjects): 94%
reduction in seizures, EEG data ([2]; single JAE subject): 50 to 100%
reduction in diary recorded seizures ([3]; 2 of the 3 CAE patients): > 80%
Seizure Frequency at visit 5 ([3]; Patient 1, Jeavons, 10 mg daily, current ASMs VPA, CLON, baseline 409 per month): 608
% Reduction in Seizures ([3]; Patient 1, Jeavons, 10 mg daily, printed as Increase): ~50%
% Reduction in Seizures ([3]; Patient 3, CAE, 10 mg daily): 85%
Seizure Frequency at visit 5 ([3]; Patient 3, CAE, 10 mg daily, current ASMs LTG, ESM, ketogenic diet, baseline 41 per month): 6
% Reduction in Seizures ([3]; Patient 4, CAE, 10 mg daily): 57%
Seizure Frequency at visit 5 ([3]; Patient 4, CAE, 10 mg daily, current ASM LTG, baseline 79 per month): 34
% Reduction in Seizures ([3]; Patient 5, CAE, 5 mg daily): 83%
Seizure Frequency at visit 5 ([3]; Patient 5, CAE, 5 mg daily, current ASM VPA, baseline 54 per month): 9
reduction in diary recorded seizures ([3]; all 3 CAE patients): > 50%
change in seizures ([3]; one of the two patients with Jeavons Syndrome): increased seizures
study termination ([3]; the other patient with Jeavons Syndrome): terminated within one week due to increase in seizures
response to flunarizine ([3]; the two patients with Jeavons Syndrome): did not respond
